Measured values reported in patent publication US20040265880A1, “Genomic and proteomic approaches for the development of cell culture medium” (Sigma-Aldrich Co., priority 2003, published 2004).
“Also recorded” adds a separate entry of the source.

Experiments:
[1] = test system: HEK-293 cells; test: Resazurin high throughput proliferation assay, HEK-293; type: cell-based, human; settings: for effect on HEK-293 proliferation (RFU, resazurin): versus base medium with 1% FBS, each ligand at three concentrations
Description: Resazurin is a metabolic dye which is converted to a fluorescent product. The greater the amount of the fluorescent product that is generated, the more metabolism, which directly correlates with cell number.
In this assay, resazurin was added to HEK-293 cells plated in each well of a 24-well assay plate containing a test medium containing one of the 16 ligands corresponding to the positive growth factors/cytokines and incubated at 37° C. After a 30 minute incubation, the plate was analyzed on a standard fluorescence plate reader. A higher RFU value from the plate reader translates to a higher cell density in the wells.
Briefly, the 16 ligands corresponding to positive growth factor/cytokine receptors were tested in the resazurin assay, each ligand at three different concentrations. The graphical representations of the RFU values observed for each factor, shown in FIGS. 3 and 4, include the base medium (with 1% FBS) shown as the pink line. The other 3 lines on each graph represent the three (3) concentrations of growth factor tested in the assay. […] Finally, some factors had no effect on the proliferation of the HEK-293 culture (FIG. 3A-3D).
(§1) Cells were plated in each well of a 24-well tissue culture treated plate containing 1 ml of a base medium. The base medium contained the lowest amount of FBS required to maintain approximately half-maximal growth of the given cell type. Test conditions were performed in triplicate, with each test compound added to the base medium at three different concentrations. The cells were allowed to grow until they reached approximately 33% confluent. At this point, 100 μl of the resazurin solution from a resazurin based in vitro toxicology kit (Sigma-Aldrich Co., Product No. TOX-8) was added to each well. After sufficient incubation time to convert some of the resazurin, the fluorescence was measured on a HTS 7000 Plus BioAssay Reader (Perkin-Elmer, Boston, Mass.). Readings were taken once a day until the culture was confluent (typically about 4 days). A plate with base medium only (no cells) was used as a blank and subtracted from the RFU reading to establish the final RFU values.

[2] = test system: WI-38 cells; test: Proliferation assay (resazurin), WI-38; type: cell-based, human; settings: single factor added to base medium
From the text: In order to test the possibility of using the method as applied to HEK-293 cells to identify pathways in other cell lines, the normal human fibroblast, WI-38 was chosen. These cells are typically grown in a base medium containing anywhere from 3-10% FBS.
Of the initial 17 receptors gleaned from the microarray, 12 ligands were chosen for testing. These ligands were chosen in the same way as the ligands for the HEK-293 cells, based on signal versus controls as well as based on knowledge of the various factors.
Signaling within a cell for increased growth can be stimulated in a variety of different ways. Combinations of the 4 chosen factors as listed above we added to cell culture medium to determine if the addition of more than 1 of the positive ligands would produce an increased amount of proliferation, or if the ligands would all stimulate the same downstream pathways, leading to no added benefit. This method allowed for the formulation of cell culture medium that it had not been possible to formulate prior to these assays.
as §1

[3] = test system: CHO-AP cells; test: Alkaline phosphatase production assay, CHO-AP; type: cell-based, Chinese hamster; settings: suspension culture in serum-free CHO medium
Description: (§2) In order to further test the possibility of using the method as applied to HEK-293 cells to identify pathways in other cell lines, Chinese hamster ovary (CHO) cells were run on a microarray. Cells from the CHO-AP line produce alkaline phosphatase (AP). These cells are grown in a suspension culture in a serum-free CHO medium (Sigma-Aldrich Co., Product No. C5467).
On day 7 of the assay, the contents of each well were collected into 1.5 ml microfuge tubes. The cell suspensions were centrifuged at 16,000 rpm for five minutes. The supernatants were collected in 2 ml cryovials and the cell pellets were discarded. Each supernatant was diluted 1:10 and then assayed for the presence of Alkaline Phosphatase using the Alkaline Phosphatase Reporter Gene Assay Kit, Fluorescence (Product AP-F).

[4] = test system: CHO-AP cells; test: Proliferation assay, CHO-AP; type: cell-based, Chinese hamster; settings: suspension culture in serum-free CHO medium
Description: as §2
Although the cDNA array from Takara is designed with human sequences, the array was probed using cDNA made from mRNA from the CHO cells. This attempt generated 22 positive receptors, of which 16 were tested (Table 6).
as §1, with “The cells were allowed to grow until they reached approximately 33% confluent. At this point, 100 μl of the resazurin solution from a resazurin based in vitro toxicology kit (Sigma-Aldrich Co., Product No. TOX-8) was added to each well.” left out

Molecule | effect on HEK-293 proliferation (RFU, resazurin) [1] | effect on proliferation of WI-38 cells (RFU) [2] | further results
stromal cell-derived factor 1a [SDF1α] | significant effect | significant increased proliferation | effect on proliferation of WI-38 cells (RFU) ([2]; listed as stromal cell-derived factor 1 a): positive effects
epidermal growth factor [EGF, growth factor, ligand of EGF receptor] | significant effect | – | –
CCCCC/C=C\C/C=C\C/C=C\C/C=C\CCCC(=O)O [arachidonic acid, reference compound] | – | – | effect on proliferation of HEK-293 cells (PKC pathway stimulation, Example 4) ([1]; FIG. 10): positive effect
interleukin-1 [IL-1] | – | significant increased proliferation | productivity of alkaline phosphatase by CHO-AP cells [3]: increased the productivity; also recorded: positive effects; effect on proliferation of CHO-AP cells [4]: positive effects; effect on proliferation of WI-38 cells (RFU) ([2]; listed as interleukin-1): positive effects
platelet-derived growth factor [PDGF] | – | significant increased proliferation | effect on proliferation of WI-38 cells (RFU) ([2]; listed as platelet-derived growth factor AB): positive effects
basic fibroblast growth factor [bFGF] | significant effect | significant increased proliferation | effect on proliferation of WI-38 cells (RFU) ([2]; listed as basic fibroblast growth factor): positive effects
